Experimental data taken from ChEMBL document CHEMBL1153218, “Non-peptide entry inhibitors of HIV-1 that target the gp41 coiled coil pocket” (Bioorg Med Chem Lett, 2010).

Test: Inhibition of HIV1 envelope gp41-mediated fusion of CHO cells expressing HIV1 envelope with calcein-AM labeled SupT1 cells by fluorescence assay
Assay type: cell-based, Human immunodeficiency virus 1

Row | SMILES | EC50
1 | O=C(O)c1cc(C(=O)O)c(C(=O)N(Cc2cccc(Oc3ccccc3)c2)[C@H]2CCCc3ccccc32)cc1C(=O)O [A-317491] | 13 µM
2 | O=C(O)c1ccccc1C(=O)N(Cc1cccc(Oc2ccc(Cl)cc2)c1)[C@H]1CCCc2ccccc21 | 3 µM
3 | CC(=O)N[C@H](CCCCN)C(=O)N[C@H](CCCCN)C(=O)NCC(=O)N[C@H](C)C(=O)N[C@@H]1CSSC[C@H](C(=O)N[C@H](C)C(=O)N[C@H](C)C(N)=O)NC(=O)[C@@H](CC(C)C)NC(=O)[C@@H](Cc2c[nH]c3ccccc23)NC(=O)[C@@H](C)NC(=O)[C@@H](Cc2c[nH]c3ccccc23)NC(=O)[C@@H](CCC(=O)O)NC(=O)[C@@H](Cc2c[nH]c3ccccc23)NC(=O)CNC(=O)[C@@H](CC(C)C)NC(=O)[C@@H](CC(C)C)NC(=O)[C@@H](CCC(=O)O)NC1=O | 19 µM
4 | O=C(O)c1cc(C(=O)O)c(C(=O)N(Cc2ccc(-c3cc(Cl)cc(Cl)c3)cc2)[C@H]2CCCc3ccccc32)cc1C(=O)O | 4 µM
5 | O=C(O)c1cc(C(=O)O)cc(C(=O)N(Cc2cccc(Oc3ccccc3)c2)[C@H]2CCCc3ccccc32)c1 | 41 µM
6 | O=C(O)c1ccccc1C(=O)N(Cc1cccc(Oc2ccccc2)c1)CC12CC3CC(CC(C3)C1)C2 | 7 µM
7 | O=C(O)c1ccc(C(=O)N(Cc2cccc(Oc3ccccc3)c2)[C@H]2CCCc3ccccc32)cc1C(=O)O | 34 µM

Further lines, results first:

Row | EC50 | SMILES
8 | 14 µM | COc1ccc(-c2ccc(CN(C(=O)c3cc(C(=O)O)c(C(=O)O)cc3C(=O)O)[C@H]3CCCc4ccccc43)cc2)cc1
9 | 9 µM | O=C(O)c1cc(C(=O)O)c(C(=O)N(Cc2ccc(-c3ccccc3Cl)cc2)[C@H]2CCCc3ccccc32)cc1C(=O)O
10 | 16 µM | O=C(O)c1ccccc1C(=O)N(Cc1ccc(-c2ccccc2)cc1)[C@H]1CCCc2ccccc21
11 | 26 µM | O=C(O)c1cc(C(=O)O)c(C(=O)N(Cc2ccc3c(c2)Cc2ccccc2-3)[C@H]2CCCc3ccccc32)cc1C(=O)O
12 | > 250 µM | O=C(O)c1cc(C(=O)O)c(C(=O)N(Cc2cccc(OC3CCOCC3)c2)[C@H]2CCCc3ccccc32)cc1C(=O)O

Test: Binding affinity to HIV1 envelope gp41 by NMR study
Parameters: species or system Human immunodeficiency virus 1

Row | Kd | SMILES
13 | 789 µM | COc1ccc(-c2ccc(CN(C(=O)c3cc(C(=O)O)c(C(=O)O)cc3C(=O)O)[C@H]3CCCc4ccccc43)cc2)cc1
14 | > 5000 µM | O=C(O)c1ccccc1C(=O)N(Cc1cccc(Oc2ccccc2)c1)Cc1ccccn1
